# Assays:
# [1] = molecular target: Human MNC ACE (Homo sapiens, UniProt P12821); assay: ACE activity assay in human mononuclear cell lysates; conditions: cell lysate 10 μg protein, 4 h
# [2] = molecular target: Human MNC ACE2 (Homo sapiens, UniProt Q9BYF1); assay: ACE2 activity assay in human mononuclear cell lysates; conditions: for Imax at ACE2 in human MNCs: cell lysate 10 μg protein, 4 h
# [3] = molecular target: ACE2 in murine heart (Mus musculus, UniProt Q8R0I0); assay: ACE2 activity assay in murine heart homogenate; type: biochemical
# [4] = molecular target: ACE2 in human CD34+ cells (Homo sapiens, UniProt Q9BYF1); assay: ACE2 activity assay in human CD34+ cell lysates; conditions: for Imax at ACE2 in human CD34+ cells: cell lysate, 4 h, n=6
# Chain of ACE2 in human CD34+ cells (Q9BYF1 18-805): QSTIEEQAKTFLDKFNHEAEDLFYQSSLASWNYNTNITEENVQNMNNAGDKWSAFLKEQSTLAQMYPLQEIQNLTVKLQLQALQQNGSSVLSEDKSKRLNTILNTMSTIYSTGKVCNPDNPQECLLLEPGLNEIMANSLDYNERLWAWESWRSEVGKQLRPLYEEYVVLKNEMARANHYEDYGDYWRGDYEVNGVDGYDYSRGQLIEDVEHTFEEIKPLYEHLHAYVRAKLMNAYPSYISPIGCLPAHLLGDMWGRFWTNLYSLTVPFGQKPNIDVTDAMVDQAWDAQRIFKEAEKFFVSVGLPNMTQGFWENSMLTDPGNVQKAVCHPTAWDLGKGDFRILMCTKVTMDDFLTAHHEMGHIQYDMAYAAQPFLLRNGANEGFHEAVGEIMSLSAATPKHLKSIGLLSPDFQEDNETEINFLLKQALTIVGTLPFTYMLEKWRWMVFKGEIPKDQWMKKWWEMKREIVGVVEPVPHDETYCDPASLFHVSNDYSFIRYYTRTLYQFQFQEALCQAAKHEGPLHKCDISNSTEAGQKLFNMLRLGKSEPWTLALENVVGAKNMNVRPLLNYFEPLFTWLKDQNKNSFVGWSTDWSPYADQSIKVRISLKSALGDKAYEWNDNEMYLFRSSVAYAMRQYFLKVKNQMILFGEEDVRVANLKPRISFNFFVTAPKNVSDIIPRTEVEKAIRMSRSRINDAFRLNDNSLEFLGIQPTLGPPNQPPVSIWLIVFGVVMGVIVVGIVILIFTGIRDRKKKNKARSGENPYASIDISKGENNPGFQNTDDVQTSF
# [5] = molecular target: ACE in human CD34+ cells (Homo sapiens, UniProt P12821); assay: ACE activity assay in human CD34+ cell lysates
# Chain of ACE in human CD34+ cells (P12821 30-1306): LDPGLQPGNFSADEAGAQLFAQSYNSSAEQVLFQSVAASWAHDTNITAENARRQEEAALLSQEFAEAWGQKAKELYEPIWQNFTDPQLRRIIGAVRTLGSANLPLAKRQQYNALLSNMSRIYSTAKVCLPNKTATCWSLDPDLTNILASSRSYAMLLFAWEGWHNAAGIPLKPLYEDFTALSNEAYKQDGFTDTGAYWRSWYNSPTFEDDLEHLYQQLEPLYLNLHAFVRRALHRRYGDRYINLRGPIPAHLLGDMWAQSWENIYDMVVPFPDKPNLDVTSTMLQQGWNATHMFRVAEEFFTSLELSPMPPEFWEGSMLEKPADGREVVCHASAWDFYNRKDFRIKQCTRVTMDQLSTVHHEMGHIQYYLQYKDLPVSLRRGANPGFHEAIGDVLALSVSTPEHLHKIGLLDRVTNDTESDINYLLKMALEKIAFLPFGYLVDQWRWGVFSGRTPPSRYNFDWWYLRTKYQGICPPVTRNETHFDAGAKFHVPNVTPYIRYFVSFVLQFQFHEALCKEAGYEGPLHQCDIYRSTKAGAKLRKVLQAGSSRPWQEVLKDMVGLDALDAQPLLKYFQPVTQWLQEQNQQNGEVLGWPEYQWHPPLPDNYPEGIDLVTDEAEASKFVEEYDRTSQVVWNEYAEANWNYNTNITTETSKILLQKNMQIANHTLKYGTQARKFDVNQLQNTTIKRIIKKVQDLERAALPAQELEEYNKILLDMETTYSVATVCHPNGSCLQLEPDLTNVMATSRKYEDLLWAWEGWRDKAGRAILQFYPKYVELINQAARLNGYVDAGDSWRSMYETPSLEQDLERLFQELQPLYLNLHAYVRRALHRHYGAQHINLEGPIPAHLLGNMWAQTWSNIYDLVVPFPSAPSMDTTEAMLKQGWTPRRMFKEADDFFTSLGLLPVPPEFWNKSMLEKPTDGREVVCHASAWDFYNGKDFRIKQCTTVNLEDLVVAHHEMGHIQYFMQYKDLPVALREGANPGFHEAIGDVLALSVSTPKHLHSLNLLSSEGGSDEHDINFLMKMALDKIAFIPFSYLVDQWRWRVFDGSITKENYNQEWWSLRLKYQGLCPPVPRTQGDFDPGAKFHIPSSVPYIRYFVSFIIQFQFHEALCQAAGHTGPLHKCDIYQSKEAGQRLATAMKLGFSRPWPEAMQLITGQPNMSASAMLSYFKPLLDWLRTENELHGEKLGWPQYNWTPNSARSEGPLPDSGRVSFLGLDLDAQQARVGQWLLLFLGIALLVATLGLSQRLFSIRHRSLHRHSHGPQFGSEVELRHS
# [6] = molecular target: T1, Murine MNC ACE (Mus musculus, UniProt P09470); assay: ACE activity assay in murine mononuclear cell lysates
# T1 sequence (P09470 35-1312): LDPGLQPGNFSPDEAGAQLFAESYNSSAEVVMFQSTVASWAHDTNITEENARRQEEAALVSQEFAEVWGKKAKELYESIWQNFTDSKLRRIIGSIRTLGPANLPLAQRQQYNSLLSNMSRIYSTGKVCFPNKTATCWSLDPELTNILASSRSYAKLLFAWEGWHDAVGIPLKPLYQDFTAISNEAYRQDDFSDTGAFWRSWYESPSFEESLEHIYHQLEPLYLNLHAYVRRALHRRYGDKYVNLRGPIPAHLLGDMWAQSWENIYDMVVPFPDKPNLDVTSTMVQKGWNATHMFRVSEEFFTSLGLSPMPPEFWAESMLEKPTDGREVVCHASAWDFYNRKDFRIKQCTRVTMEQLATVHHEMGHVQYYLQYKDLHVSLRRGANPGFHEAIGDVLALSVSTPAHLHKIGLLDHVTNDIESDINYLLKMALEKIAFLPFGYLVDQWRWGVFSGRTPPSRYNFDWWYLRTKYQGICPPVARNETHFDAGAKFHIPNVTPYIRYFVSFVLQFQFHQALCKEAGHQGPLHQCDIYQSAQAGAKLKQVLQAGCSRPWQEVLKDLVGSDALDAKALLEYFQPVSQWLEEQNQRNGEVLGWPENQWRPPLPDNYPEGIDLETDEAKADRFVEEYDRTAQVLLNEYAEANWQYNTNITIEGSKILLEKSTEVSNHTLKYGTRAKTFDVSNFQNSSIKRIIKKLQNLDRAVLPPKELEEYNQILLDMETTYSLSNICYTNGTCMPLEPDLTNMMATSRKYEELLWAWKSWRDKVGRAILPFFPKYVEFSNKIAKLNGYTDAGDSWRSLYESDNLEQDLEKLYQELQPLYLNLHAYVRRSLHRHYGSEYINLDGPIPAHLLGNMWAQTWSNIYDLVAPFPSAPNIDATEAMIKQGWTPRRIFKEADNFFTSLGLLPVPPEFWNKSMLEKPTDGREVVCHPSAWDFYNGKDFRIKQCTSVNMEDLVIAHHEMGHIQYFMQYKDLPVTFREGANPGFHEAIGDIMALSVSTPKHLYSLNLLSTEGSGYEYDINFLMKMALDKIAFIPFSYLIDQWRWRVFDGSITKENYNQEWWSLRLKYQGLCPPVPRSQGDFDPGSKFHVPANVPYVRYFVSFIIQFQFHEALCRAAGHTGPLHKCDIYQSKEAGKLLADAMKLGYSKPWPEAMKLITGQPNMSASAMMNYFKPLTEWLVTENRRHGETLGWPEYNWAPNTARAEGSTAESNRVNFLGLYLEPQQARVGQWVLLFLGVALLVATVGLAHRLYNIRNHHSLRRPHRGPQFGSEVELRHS
# [7] = molecular target: Recombinant Human ACE (rhACE) (Homo sapiens, UniProt P12821); assay: ACE activity assay with recombinant human ACE; type: biochemical
# Chain of Recombinant Human ACE (rhACE) (P12821 30-1306): as the sequence (P12821 30-1306) above
# [8] = molecular target: Murine MNC ACE2 (Mus musculus, UniProt Q8R0I0); assay: ACE2 activity assay in murine mononuclear cell lysates
# Chain of Murine MNC ACE2 (Q8R0I0 18-805): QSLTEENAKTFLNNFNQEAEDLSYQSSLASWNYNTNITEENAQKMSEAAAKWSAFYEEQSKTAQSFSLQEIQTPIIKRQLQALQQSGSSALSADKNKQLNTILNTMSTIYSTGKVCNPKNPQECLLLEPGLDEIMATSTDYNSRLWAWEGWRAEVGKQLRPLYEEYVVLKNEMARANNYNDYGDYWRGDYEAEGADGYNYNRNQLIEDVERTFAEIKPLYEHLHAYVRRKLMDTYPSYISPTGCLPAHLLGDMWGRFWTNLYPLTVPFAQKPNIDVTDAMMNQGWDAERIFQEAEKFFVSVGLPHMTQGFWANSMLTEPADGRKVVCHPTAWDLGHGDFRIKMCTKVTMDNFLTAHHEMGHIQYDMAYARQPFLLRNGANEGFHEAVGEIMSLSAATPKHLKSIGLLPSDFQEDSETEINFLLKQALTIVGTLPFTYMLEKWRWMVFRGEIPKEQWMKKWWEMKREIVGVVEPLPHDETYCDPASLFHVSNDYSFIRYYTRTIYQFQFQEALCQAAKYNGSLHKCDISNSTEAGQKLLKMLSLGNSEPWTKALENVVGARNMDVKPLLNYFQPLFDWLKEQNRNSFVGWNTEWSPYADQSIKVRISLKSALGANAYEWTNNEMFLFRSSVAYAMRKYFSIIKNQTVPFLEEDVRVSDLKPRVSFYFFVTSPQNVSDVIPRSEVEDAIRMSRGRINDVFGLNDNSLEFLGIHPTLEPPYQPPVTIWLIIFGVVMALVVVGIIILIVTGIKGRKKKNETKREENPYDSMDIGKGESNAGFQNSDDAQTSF
# [9] = molecular target: Recombinant Human ACE2 (rhACE2) (Homo sapiens, UniProt Q9BYF1); assay: ACE2 activity assay with recombinant human ACE2; type: biochemical
# Chain of Recombinant Human ACE2 (rhACE2) (Q9BYF1 18-805): as the sequence (Q9BYF1 18-805) above
# [10] = molecular target: T2, ACE in murine heart (Mus musculus, UniProt P09470); assay: ACE activity assay in murine heart homogenate; type: biochemical
# T2 sequence (P09470 35-1312): T1 sequence (P09470 35-1312)
# [11] = recombinant enzyme, 50 μM substrate, pH 6.5, 1 h
# Chain of Human MNC ACE2 (Q9BYF1 18-805): as above
# Chain of Human MNC ACE (P12821 30-1306): as the sequence (P12821 30-1306) above
structure (smiles),measurement,setting,value
"CC(C)C[C@H](N[C@@H](Cc1cncn1Cc1cc(Cl)cc(Cl)c1)C(=O)O)C(=O)O [isomer B, (2S)-2-[[(2S)-3-[3-[(3,5-dichlorophenyl)methyl]imidazol-4-yl]-1-hydroxy-1-oxopropan-2-yl]amino]-4-methylpentanoic acid]",Imax at ACE in human MNCs,[1],34±1%
same,Ki,[2],200 ± 10 nM
same,IC50,"[2]; IC50, Human ACE2 (human MNCs)",500 ± 30 nM
same,Imax at ACE2 in human MNCs,[2],63±2%
same,Imax at ACE2 in human MNCs,[2]; listed as MLN-4760-B,63%
same,IC50,[3],251 nM
same,IC50,[4],316 nM
same,Imax at ACE2 in human CD34+ cells,[4],38±4%
same,Imax at ACE2 in human CD34+ cells,[4]; listed as MLN-4760-B,38%
same,IC50,[5],12600 nM
same,Imax at ACE in human CD34+ cells,"[5]; cell lysate, 4 h, n=6",19±2%
same,IC50,[6],20000 nM
same,inhibition at 10 µM,[7]; read-out: inhibition of rhACE activity,43%
same,Imax at rhACE,[7]; [11],46±1%
same,Ki,[8],2100 ± 200 nM
same,IC50,"[8]; pIC50 at ACE2 in murine MNCs, cell lysate, 4 h",79.4 nM
same,Ki,[9],40 ± 5 nM
same,IC50,"[9]; IC50, Recombinant Human ACE2",10 ± 6 nM
same,Maximum inhibition (Imax) of rhACE2,[9]; [11],80±3%
same,IC50,[10],63100 nM
